Patent publication US20050130252A1, “Stabilized susceptibility tests of aerobic pathogens” (Wyeth Holdings Corporation, priority 2003, published 2005)
Values after ≈ are worked out from the molar mass of the structure shown. Read-outs that look alike come from different tables or passages of the source.

What was measured:
Assay in all cases: Broth microdilution MIC
Assay type in all cases: cell-based
[1] = tested on: Enterococcus faecalis GC4555 ATCC Control; conditions: for In Vitro Activity of Tigecycline: Broth, E. faecalis GC4555 ATCC Control; for MIC: Enterococcus faecalis, E. faecalis GC4555 (ATCC Control), read-out: Minimal Inhibitory Concentration
Description: (§1) The process for preparing susceptibility test medium are the following steps: • a. Preparing Mueller Hinton Broth II medium by adding 22 grams powdered media to 1.0 liter distilled water; • b. Autoclaving (121° C., 15 psi, 15 minutes) and cooling the medium; • c. Adding Oxyrase® up to about 10% final volume and keeping at 35-37° C. in an incubator for 30 minutes; • d. Adding about 50 μL to each well of a 96 well microtiter plate; • e. Weighing drug and adding broth to drug to bring up to about (standard 128 μg/ml); • f. Adding 50 μL of the drug to the first column of the titer plate; • g. Diluting by two-fold serial diluting across or down the plate. • h. Preparing a Prompt™ inoculum at 10^8 CFU/ml; • i. Diluting inoculum 1:100 in the broth at […] in 9.9 ml (1:100) is 10^6 colony forming units (CFU) forming the adjusted inoculum; • j. Adding 50 μL of the adjusted inoculum to the wells of the microtiter plate; • k. Incubating the plates at 35-37° C. for 18-22 hours; and • l. Reading, with the unaided eye, the MIC.
(§2) The in vitro activities of tigecycline and control antibiotics were determined by the broth microdilution method as recommended by the NCCLS. (National Committee for Clinical Laboratory Standards, 2003. Methods for Dilution Antimicrobial Susceptibility Tests for Bacteria That Grow Aerobically; Approved Standards: M7-A6, Sixth ed, vol. 23., National Committee for Clinical Laboratory Standards Wayne, Pa.) was used for the standard procedures. MBH with 5% lysed horse blood was used for testing S. pneumoniae and Haemophilus Test Medium was used for testing H. influenzae. Oxyrase® (Oxyrase Inc, Mansfield, Ohio) was used according to the manufacturer's instructions by adding 1 ml of Oxyrase® to 50 ml of media. Media age studies were performed by preparing MHB in multiple flasks, then storing the media under various conditions. MICs were usually performed in duplicate on each day of testing. Storage under anaerobic conditions was conducted in an anaerobic chamber (MACS MG 1000, Don Whitley Scientific LTD). The pH of the media was determined by pH meter (Corning 430). A comparison of the in vitro activity of tigecycline by agar and broth dilution methodolgies with and without Oxyrase® against clinical isolates is shown in Table 1.

[2] = tested on: Escherichia coli GC1073 tet(B) wt; conditions: for In Vitro Activity of Tigecycline: Broth, E. coli GC1073 tet(B) wt
Description: as §1, §2

[3] = tested on: Escherichia coli GC2203 ATCC Control; conditions: for In Vitro Activity of Tigecycline: Broth, E. coli GC2203 ATCC Control; for MIC: Escherichia coli, E. coli GC2203 (ATCC Control), read-out: Minimal Inhibitory Concentration
Description: as §1, §2

[4] = tested on: Escherichia coli GC4559 parent GC4560; conditions: E. coli GC4559; for In Vitro Activity of Tigecycline: Broth; for MIC: Escherichia coli, read-out: Minimal Inhibitory Concentration
Description: as §1, §2

[5] = tested on: Escherichia coli GC4560 IMP mutant; conditions: E. coli GC4560 IMP mutant
Description: as §1, §2

[6] = tested on: H. influenzae GC6896 (ATCC Control); conditions: Haemophilus influenzae, read-out: Minimal Inhibitory Concentration
Description: as §1, §2

[7] = tested on: M. catarrhalis GC6907 (Clinical); conditions: Moraxella catarrhalis, read-out: Minimal Inhibitory Concentration
Description: as §1, §2

S. pneumoniae ATCC 49619 = tested on: S. pneumoniae ATCC 49619
Description: as §1, §2

[8] = tested on: S. pneumoniae GC1894 (Clinical); conditions: Streptococcus pneumoniae, read-out: Minimal Inhibitory Concentration
Description: as §1, §2

[9] = tested on: S. pneumoniae GC4465 (Clinical); conditions: Streptococcus pneumoniae, read-out: Minimal Inhibitory Concentration
Description: as §1, §2

[10] = tested on: Staphylococcus aureus GC1079 tet(K)
Description: as §1, §2

[11] = tested on: Staphylococcus aureus GC1131 Clinical isolate; conditions: for In Vitro Activity of Tigecycline: Broth, S. aureus GC1131; for MIC: Staphylococcus aureus, S. aureus GC1131 (Clinical), read-out: Minimal Inhibitory Concentration
Description: as §1, §2

[12] = tested on: Staphylococcus aureus GC2216 ATCC Control; conditions: for In Vitro Activity of Tigecycline: Broth, S. aureus GC2216 ATCC Control; for MIC: Staphylococcus aureus, S. aureus GC2216 (ATCC Control), read-out: Minimal Inhibitory Concentration
Description: as §1, §2

[13] = tested on: Staphylococcus aureus GC4536 Smith MP -In Vivo; conditions: for In Vitro Activity of Tigecycline: Broth, S. aureus GC4536 Smith; for MIC: Staphylococcus aureus, S. aureus GC4536 (Smith MP - In Vivo), read-out: Minimal Inhibitory Concentration
Description: as §1, §2

[14] = tested on: Staphylococcus aureus GC6466 Clinical - tet(M); conditions: for In Vitro Activity of Tigecycline: Broth, S. aureus GC6466 tet(M); for MIC: Staphylococcus aureus, read-out: Minimal Inhibitory Concentration
Description: as §1, §2

[15] = tested on: Staphylococcus aureus GC6467 Clinical - tet(M) + (K); conditions: S. aureus GC6467 tet(M) + (K)
Description: as §1, §2

[16] = 336 h, Aged Media (two weeks at RT)
[17] = Table 8, Mueller Hinton Broth + Oxyrase, n = 240
[18] = Table 8, Mueller Hinton Broth, n = 320

## CN(C)c1cc(NC(=O)CNC(C)(C)C)c(O)c2c1C[C@H]1C[C@H]3[C@H](N(C)C)C(O)=C(C(N)=O)C(=O)[C@@]3(O)C(O)=C1C2=O [Tigecycline, tigecycline]
[1]; Oxyrase (2%)
  In Vitro Activity of Tigecycline: 0.06
[1]; no Oxyrase
  In Vitro Activity of Tigecycline: 0.50
[1]; [16]
  MIC: 0.25 µg/mL (≈ 0.427 µM)
[1]; Fresh Media
  MIC: 0.03 µg/mL (≈ 0.0512 µM)
[2]; Oxyrase (2%)
  In Vitro Activity of Tigecycline: 0.12
[2]; no Oxyrase
  In Vitro Activity of Tigecycline: 0.50
[2]; Escherichia coli, read-out: Minimal Inhibitory Concentration
  MIC: 0.12 µg/mL (≈ 0.205 µM)
[3]; Oxyrase (2%)
  In Vitro Activity of Tigecycline: 0.12
[3]; no Oxyrase
  In Vitro Activity of Tigecycline: 0.25
[3]; [16]
  MIC: 0.12 µg/mL (≈ 0.205 µM)
[3]; Fresh Media
  MIC: 0.03 µg/mL (≈ 0.0512 µM)
[4]; Oxyrase (2%)
  In Vitro Activity of Tigecycline: 0.12
[4]; no Oxyrase
  In Vitro Activity of Tigecycline: 0.50
[4]; [16]
  MIC: 0.12 µg/mL (≈ 0.205 µM)
[4]; Fresh Media
  MIC: 0.06 µg/mL (≈ 0.102 µM)
[5]; Oxyrase (2%)
  In Vitro Activity of Tigecycline: 0.03
[5]; no Oxyrase
  In Vitro Activity of Tigecycline: 0.25
[6]; [16]
  MIC: 0.5 µg/mL (≈ 0.854 µM)
[6]; Fresh Media
  MIC: 0.25 µg/mL (≈ 0.427 µM)
[7]; [16]
  MIC: 0.03 µg/mL (≈ 0.0512 µM)
[7]; Fresh Media
  MIC: 0.015 µg/mL (≈ 0.0256 µM)
S. pneumoniae ATCC 49619; [17]
  Number of Occurrences of MIC 0.004 ug/ml: 6
  Number of Occurrences of MIC 0.008 ug/ml: 73
  Number of Occurrences of MIC 0.016 ug/ml: 137
  Number of Occurrences of MIC 0.03 ug/ml: 21
  Number of Occurrences of MIC 0.06 ug/ml: 3
S. pneumoniae ATCC 49619; [18]
  Number of Occurrences of MIC 0.016 ug/ml: 1
  Number of Occurrences of MIC 0.03 ug/ml: 54
  Number of Occurrences of MIC 0.06 ug/ml: 188
  Number of Occurrences of MIC 0.12 ug/ml: 48
  Number of Occurrences of MIC 0.25 ug/ml: 29
[8]; [16]
  MIC: 0.03 µg/mL (≈ 0.0512 µM)
[8]; Fresh Media
  MIC: < 0.008 µg/mL
[9]; [16]
  MIC: 0.03 µg/mL (≈ 0.0512 µM)
[9]; Fresh Media
  MIC: < 0.008 µg/mL
[10]; Broth, no Oxyrase, S. aureus GC1079 tet(K)
  In Vitro Activity of Tigecycline: 0.50
[10]; Staphylococcus aureus, read-out: Minimal Inhibitory Concentration
  MIC: 0.25 µg/mL (≈ 0.427 µM)
[11]; Oxyrase (2%)
  In Vitro Activity of Tigecycline: 0.25
[11]; no Oxyrase
  In Vitro Activity of Tigecycline: 0.50
[11]; [16]
  MIC: 0.25 µg/mL (≈ 0.427 µM)
[11]; Fresh Media
  MIC: 0.25 µg/mL (≈ 0.427 µM)
[12]; Oxyrase (2%)
  In Vitro Activity of Tigecycline: 0.12
[12]; no Oxyrase
  In Vitro Activity of Tigecycline: 0.50
[12]; [16]
  MIC: 0.25 µg/mL (≈ 0.427 µM)
[12]; Fresh Media
  MIC: 0.12 µg/mL (≈ 0.205 µM)
[13]; Oxyrase (2%)
  In Vitro Activity of Tigecycline: 0.12
[13]; no Oxyrase
  In Vitro Activity of Tigecycline: 0.50
[13]; [16]
  MIC: 0.25 µg/mL (≈ 0.427 µM)
[13]; Fresh Media
  MIC: 0.12 µg/mL (≈ 0.205 µM)
[14]; Oxyrase (2%)
  In Vitro Activity of Tigecycline: 0.12
[14]; no Oxyrase
  In Vitro Activity of Tigecycline: 0.50
[14]; 336 h
  MIC: 0.25 µg/mL (≈ 0.427 µM)
[14]
  MIC: 0.12 µg/mL (≈ 0.205 µM)
[15]; Oxyrase (2%)
  In Vitro Activity of Tigecycline: 0.50
[15]; no Oxyrase
  In Vitro Activity of Tigecycline: 1
